Laboratory results published in publication PMC11106707, “Design of potent tyrosinase inhibiting N-arylated-4-yl-benzamides bearing 2-aminothiazole-triazole bi-heterocycles: mechanistic insight through enzyme inhibition, kinetics and computational studies” (RSC Advances, 2024).

Columns and labels:
tyrosinase = tyrosinase inhibitor reported previously, Fig. 1; cited from earlier work
RBCs (erythrocytes) = test: Hemolytic activity; format: cell-based; details: bovine, erythrocyte (RBC) suspension, pH 7.4, 20 μL compound solution (10 mg mL^−1) in 180 μL RBCs suspension, room temperature, read-out: Hemolysis (%) (mean ± SEM)
Experimental: Bovine blood sample was collected in EDTA that was diluted with saline (0.9% NaCl), and centrifuge at 1000 × g for 10 min. The erythrocytes separated diluted in phosphate buffer saline of pH 7.4 and a suspension was made. Add 20 μL of synthetic compounds solution (10 mg mL^−1) in 180 μL of RBCs suspension and incubate for 30 min at room temperature. PBS was used as negative control and Triton 100-X was taken as positive control.[43,44] The percentage of hemolysis was taken as by using formula: [drawing 24]

mushroom tyrosinase = biological target: T1, mushroom tyrosinase (Agaricus bisporus, UniProt C7FF04); test: Kinetic analysis of the inhibition of tyrosinase (Lineweaver–Burk / secondary plots); format: biochemical
T1 construct: purchased Sigma Chemical, USA
Experimental: To understand the inhibitory mechanism of synthetic compounds on the tyrosinase inhibition, kinetic study was performed. […] The kinetic results of the enzyme by the Lineweaver–Burk plot of 1/V versus 1/[S] in the presence of different inhibitor concentrations furnished a series of straight lines (Fig. 13A).
Fig. 13 Lineweaver–Burk plots for inhibition of tyrosinase in the presence of compound 9c. (A) Concentrations of 9c were 0.00, 0.004, 0.008, 0.016 and 0.032 μM, respectively. Substrate L-DOPA concentrations were 0.125, 0.25, 0.5, 1 and 2 mM, respectively. (B) The insets represent the plot of the slope versus inhibitor 9c concentrations to determine inhibition constant. The lines were drawn using linear least squares fit.
A series of experiments were performed to determine the inhibition kinetics of 9c by following the already reported methods.[41,42] The inhibitor concentrations for 9c were 0.00, 0.004, 0.008, 0.016 and 0.032 μM. Substrate L-DOPA concentrations were between 0.125 and 2 mM in all kinetic studies. Pre-incubation and measurement time was the same as discussed in the mushroom tyrosinase inhibition assay protocol. Maximal initial velocity was determined from the initial linear portion of absorbance up to five minutes after addition of enzyme at a 30 s interval. […]

T1 sequence (C7FF04 1-392): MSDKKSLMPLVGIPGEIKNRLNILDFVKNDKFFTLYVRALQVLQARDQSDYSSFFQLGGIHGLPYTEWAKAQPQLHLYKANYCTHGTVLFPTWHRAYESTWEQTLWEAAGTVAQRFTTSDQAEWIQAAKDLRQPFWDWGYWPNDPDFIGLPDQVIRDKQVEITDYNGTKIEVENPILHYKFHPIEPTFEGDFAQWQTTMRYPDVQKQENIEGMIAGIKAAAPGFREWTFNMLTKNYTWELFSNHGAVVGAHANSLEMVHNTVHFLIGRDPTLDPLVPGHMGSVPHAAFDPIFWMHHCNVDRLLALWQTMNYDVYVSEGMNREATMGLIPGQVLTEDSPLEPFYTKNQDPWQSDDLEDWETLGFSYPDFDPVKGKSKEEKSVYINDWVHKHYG

Compound: COc1cc(Cl)ccc1-n1c(SCC(=O)Nc2ccc(Br)cc2)nnc1-c1ccccc1
- IC50 (tyrosinase): 0.0048 ± 0.0016 µM

Compound: Nn1c(SCc2cc(=O)c(O)co2)nnc1-c1ccccc1Cl
- IC50 (tyrosinase): 5.35 ± 0.15 µM

Compound: Cc1ccccc1NC(=O)CSc1nnc(Cc2csc(N)n2)n1-c1ccccc1
- IC50 (tyrosinase): 0.0156 ± 0.0021 µM

Compound: Clc1ccc(-c2csc(N/N=C/c3ccc[nH]3)n2)cc1
- IC50 (tyrosinase): 7.48 ± 0.19 µM

Compound: Cc1ccc(NC(=O)c2ccc(CSc3nnc(Cc4csc(N)n4)n3-c3ccccc3)cc2)c(C)c1 [9a, 4-[({5-[(2-Amino-1,3-thiazol-4-yl)methyl]-4-phenyl-4H-1,2,4-triazol-3-yl}sulfanyl)methyl]-N-(2,4-dimethylphenyl)benzamide]
- hemolysis at 30 min, 1 mg/mL (RBCs (erythrocytes)): 6.47 ± 0.02%

Compound: Cc1ccc(C)c(NC(=O)c2ccc(CSc3nnc(Cc4csc(N)n4)n3-c3ccccc3)cc2)c1 [9b, 4-[({5-[(2-Amino-1,3-thiazol-4-yl)methyl]-4-phenyl-4H-1,2,4-triazol-3-yl}sulfanyl)methyl]-N-(2,5-dimethylphenyl)benzamide]
- hemolysis at 30 min, 1 mg/mL (RBCs (erythrocytes)): 11.76 ± 0.03%

Compound: Cc1cccc(C)c1NC(=O)c1ccc(CSc2nnc(Cc3csc(N)n3)n2-c2ccccc2)cc1 [9c, 4-[({5-[(2-Amino-1,3-thiazol-4-yl)methyl]-4-phenyl-4H-1,2,4-triazol-3-yl}sulfanyl)methyl]-N-(2,6-dimethylphenyl)benzamide]
- Inhibition type (mushroom tyrosinase; Lineweaver–Burk plots, Vmax decreased, Km remained the same): non-competitively
- Ki (mushroom tyrosinase; calculated from Dixon plots, substrate L-DOPA 0.125–2 mM, read-out: Inhibition constant Ki): 0.016 µM
- hemolysis at 30 min, 1 mg/mL (RBCs (erythrocytes)): 9.41 ± 0.02%

Compound: Cc1ccc(NC(=O)c2ccc(CSc3nnc(Cc4csc(N)n4)n3-c3ccccc3)cc2)cc1C [9d, 4-[({5-[(2-Amino-1,3-thiazol-4-yl)methyl]-4-phenyl-4H-1,2,4-triazol-3-yl}sulfanyl)methyl]-N-(3,4-dimethylphenyl)benzamide]
- hemolysis at 30 min, 1 mg/mL (RBCs (erythrocytes)): 8.82 ± 0.04%

Compound: Cc1cc(C)cc(NC(=O)c2ccc(CSc3nnc(Cc4csc(N)n4)n3-c3ccccc3)cc2)c1 [9e, 4-[({5-[(2-Amino-1,3-thiazol-4-yl)methyl]-4-phenyl-4H-1,2,4-triazol-3-yl}sulfanyl)methyl]-N-(3,5-dimethylphenyl)benzamide]
- hemolysis at 30 min, 1 mg/mL (RBCs (erythrocytes)): 6.47 ± 0.02%

Compound: Cc1ccccc1NC(=O)c1ccc(CSc2nnc(Cc3csc(N)n3)n2-c2ccccc2)cc1 [9f, 4-[({5-[(2-Amino-1,3-thiazol-4-yl)methyl]-4-phenyl-4H-1,2,4-triazol-3-yl}sulfanyl)methyl]-N-(2-methylphenyl)benzamide]
- hemolysis at 30 min, 1 mg/mL (RBCs (erythrocytes)): 12.94 ± 0.03%

Compound: Cc1cccc(NC(=O)c2ccc(CSc3nnc(Cc4csc(N)n4)n3-c3ccccc3)cc2)c1 [9g, 4-[({5-[(2-Amino-1,3-thiazol-4-yl)methyl]-4-phenyl-4H-1,2,4-triazol-3-yl}sulfanyl)methyl]-N-(3-methylphenyl)benzamide]
- hemolysis at 30 min, 1 mg/mL (RBCs (erythrocytes)): 6.52 ± 0.02%

Compound: Cc1ccc(NC(=O)c2ccc(CSc3nnc(Cc4csc(N)n4)n3-c3ccccc3)cc2)cc1 [9h, 4-[({5-[(2-Amino-1,3-thiazol-4-yl)methyl]-4-phenyl-4H-1,2,4-triazol-3-yl}sulfanyl)methyl]-N-(4-dimethylphenyl)benzamide]
- hemolysis at 30 min, 1 mg/mL (RBCs (erythrocytes)): 2.64 ± 0.04%

Compound: CCc1ccccc1NC(=O)c1ccc(CSc2nnc(Cc3csc(N)n3)n2-c2ccccc2)cc1 [9i, 4-[({5-[(2-Amino-1,3-thiazol-4-yl)methyl]-4-phenyl-4H-1,2,4-triazol-3-yl}sulfanyl)methyl]-N-(2-ethylphenyl)benzamide]
- hemolysis at 30 min, 1 mg/mL (RBCs (erythrocytes)): 9.41 ± 0.05%

Compound: CCc1ccc(NC(=O)c2ccc(CSc3nnc(Cc4csc(N)n4)n3-c3ccccc3)cc2)cc1 [9j, 4-[({5-[(2-Amino-1,3-thiazol-4-yl)methyl]-4-phenyl-4H-1,2,4-triazol-3-yl}sulfanyl)methyl]-N-(4-ethylphenyl)benzamide]
- hemolysis at 30 min, 1 mg/mL (RBCs (erythrocytes)): 8.52 ± 0.05%

Compound: CCOc1cccc(NC(=O)c2ccc(CSc3nnc(Cc4csc(N)n4)n3-c3ccccc3)cc2)c1 [9k, 4-[({5-[(2-Amino-1,3-thiazol-4-yl)methyl]-4-phenyl-4H-1,2,4-triazol-3-yl}sulfanyl)methyl]-N-(3-ethoxyphenyl)benzamide]
- hemolysis at 30 min, 1 mg/mL (RBCs (erythrocytes)): 10.35 ± 0.03%

Compound: O=C(/C=C/c1ccc(O)cc1)NC(=O)c1ccccc1 [N-acryloyl benzamide Derivatives]
- IC50 (tyrosinase): 19.2 ± 1.14 µM

Compound: COc1cccc(C(=O)NN2C(=O)c3ccccc3NC2c2ccc(Br)cc2)c1 (centres unmarked) [Quinazolinone Benzamide Derivatives]
- IC50 (tyrosinase): 1.61 ± 0.324 µM

Compound: CC(C)(C)CC(C)(C)c1ccc(OCCO)cc1 [Triton X, reference compound]
- hemolysis at 30 min, 1 mg/mL (RBCs (erythrocytes)): 94.11 ± 0.01%
